Our source for the TGI values is PubChem BioAssay (NCI).

The structures appear in SMILES notation.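 Compound exposure: 48 hours, 5 concentrations, 96-well plates. TGI marks complete inhibition of growth.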 Where only a bound is given, the exact number is not on record here.

What all share (experiment): growth of human tumour cells (NCI), 48 h
Test [1] deals with IGROV1 ovarian.
Test [2] relates to UACC-62 melanoma.
Test [3] concerns SR leukemia.
Test [4] deals with RPMI-8226 leukemia.
Test [5] concerns K-562 leukemia.
Test [6] has as its system NCI-H522 lung.
The test system of test [7] is MALME-3M melanoma.
Test [8] has as its system MDA-MB-231 breast.
Test [9] relates to SF-295 CNS.
Test [10] deals with HS 578T breast.

In the case of `Cc1cccc2c1C(=O)C1(Cc3ccccc3C1=O)C2` (stereo not given), the TGI in [1], in test [2], in test [3], in test [4], in [5] and in [6] was more than 100 µM each time. Further, the TGI in test [7], in test [8], in [9] and in test [10] was more than 100 µM each time.

Regarding `CC1(C)C2CCC1(CS(=O)(=O)Nc1ccccc1)C(=O)C2` (stereo not given), the TGI in test [1], in test [2], in test [3], in test [4], in test [5] and in test [6] was more than 100 µM throughout. The TGI in test [7], in test [8], in [9] and in [10] was more than 100 µM throughout.

`C/C(O)=C/c1nc2ccccc2nc1/C=C(/C)O`: the TGI in test [1] stood at 54.7 µM; in test [2], 45.4 µM; in test [3], 77.5 µM; in test [4], 56.5 µM; in test [5] it was 81 µM; in [6], 27.7 µM. Besides, the TGI in [7] was determined as 50.7 µM; in test [8], 53 µM; in test [9], 67.5 µM; in test [10], 67.5 µM.

On to `CC(C)(C)c1cc(C(O)(C(=O)O)C(=O)O)cc(C(C)(C)C)c1O`, for which the TGI in test [1], in test [2], in test [3], in [4], in test [5] and in test [6] was more than 100 µM each time. Also, the TGI in test [7], in test [8], in test [9] and in [10] was more than 100 µM each time.

As to `N#CCCNCCN(CCN(C(=O)Nc1ccccc1)c1ccccc1)C(=O)Nc1ccccc1`, the TGI in test [1] was more than 100 µM; in test [2] it was more than 100 µM; in test [3] it was more than 100 µM; in test [4], more than 100 µM; in test [5], more than 100 µM; in test [6], 54.4 µM. Also, the TGI in [7] was 54.8 µM; in test [8], more than 100 µM; in test [9], more than 100 µM; in test [10], more than 100 µM.

Regarding `[O-][n+]1onc2c3nn(-c4ccccc4)nc3ccc21`, the TGI in [1] is more than 100 µM; in test [2], more than 100 µM; in [3], more than 75.1 µM; in test [4], 53.3 µM; in [5], more than 100 µM; in [6], more than 100 µM. Further, the TGI is more than 100 µM in test [7], more than 100 µM in [8], more than 100 µM in [9] and more than 88.6 µM in test [10].

For `Cn1ccnc1CCc1ccc(F)cc1F`, the TGI in test [1], in test [2], in test [3], in [4], in test [5] and in [6] was more than 100 µM each time. Also, the TGI in test [7], in test [8], in [9] and in test [10] was more than 100 µM throughout.

With `CC(=O)N1N=C(c2c(O)ccc3ccccc23)CC1C(=O)c1ccco1` (stereo not given), the TGI in test [1] was more than 100 µM; in [2], 32.8 µM; in test [3], 45.3 µM; in [4] it was 57.2 µM; in test [5], 49.2 µM; in test [6], more than 100 µM. The TGI in test [7] was more than 100 µM; in test [8], 74.6 µM; in test [9], more than 100 µM; in [10] it was more than 100 µM.

Consider `CC1(C)O[C@H](C(=O)O)[C@@H](C(=O)O)O1`, for which the TGI in [1], in test [2], in test [3], in test [4], in test [5] and in [6] was more than 100 µM each time. In addition, the TGI in test [7], in test [8], in test [9] and in [10] was more than 100 µM in each case.

As for `O=C1NN=C(c2ccc(Cl)cc2)CC1C1C(=O)N(c2ccccc2)N=C1c1ccccc1` (stereo not given), the TGI is more than 100 µM in test [1]; 72.8 µM in [2]; more than 100 µM in test [3]; more than 100 µM in test [4]; more than 100 µM in test [5]; 65.2 µM in test [6]. The TGI in test [7] was more than 100 µM; in test [8], more than 100 µM; in test [9], more than 100 µM; in [10], 93.9 µM.

For the molecule `O=C(O)Cc1ccc(Oc2nc3ccccc3nc2-c2cccs2)cc1`, the TGI in test [1], in test [2], in test [3], in [4], in [5] and in test [6] was more than 100 µM throughout. Further, the TGI in test [7], in [8], in test [9] and in [10] was more than 100 µM each time.

As to `Brc1ccc2c(-c3nc(-c4c[nH]c5ccccc45)cs3)c[nH]c2c1`, the TGI in [1] is more than 100 µM; in [2] it was more than 100 µM; in [3] it was more than 82.3 µM; in test [4], more than 100 µM; in [5], more than 100 µM; in test [6] it was more than 100 µM. Further, the TGI in [7] was more than 100 µM; in test [8] it was more than 89.4 µM; in test [9], more than 100 µM; in [10] it was more than 100 µM.

On to `COCn1c2ccc(OC(C)=O)cc2c2c(=O)oc(C)nc21`, for which the TGI in test [1], in test [2], in [3], in test [4], in test [5] and in test [6] was more than 100 µM each time. Besides, the TGI in [7], in [8], in test [9] and in test [10] was more than 100 µM throughout.

On to `Cc1c(-c2ccccc2)c(C#N)c2nnn(-c3ccccc3)c(=O)n12`, for which the TGI in test [1], in [2], in test [3], in test [4], in [5] and in test [6] was more than 100 µM in each case. For the same molecule, the TGI in test [7], in [8], in test [9] and in test [10] was more than 100 µM in each case.

Turning to `CN(NC(=O)/C(=C/c1ccc(O)cc1)NC(=O)c1ccccc1)c1ccnc2cc(Cl)ccc12`, the TGI in test [1] came to 34.1 µM; in [2], 31.8 µM; in test [3] it was 10.4 µM; in test [4], 40.7 µM; in test [5] it was 30.5 µM; in test [6] it was 60.7 µM. The TGI in test [7] was 39.8 µM; in test [8], 40.4 µM; in test [9], 32.3 µM; in test [10] it was 48.2 µM.

For `O=C1Cc2c(-c3ccc(Cl)cc3)cc(-c3ccccc3)nc2-c2ccccc2N1`, the TGI in test [1] was more than 50.7 µM; in [2] it was more than 58.9 µM; in [3], more than 100 µM; in test [4], 60.8 µM; in [5], more than 100 µM; in test [6], 32.9 µM. In addition, the TGI was more than 64 µM in test [7], 20.1 µM in test [8], 26.6 µM in [9] and 29.1 µM in test [10].

Take `COc1cc(Oc2nc3ccccc3nc2C(=O)O)cc(OC)c1OC`: the TGI in test [1], in test [2], in [3], in [4], in test [5] and in test [6] was more than 100 µM in each case. The TGI in test [7], in [8], in test [9] and in test [10] was more than 100 µM in each case.

Regarding `CCCCC1(N=[N+]=[N-])C(=O)c2cccc3c2N(CCC3)C1=O` (stereo not given), the TGI in [1], in [2], in test [3], in test [4], in test [5] and in [6] was more than 100 µM in each case. Also, the TGI in test [7], in [8], in [9] and in test [10] was more than 100 µM in each case.

`COCn1c(C)c(C)c2c(=O)oc(=O)[nH]c21`: the TGI in test [1], in test [2], in test [3], in test [4], in test [5] and in test [6] was more than 100 µM throughout. Also, the TGI in [7], in [8], in test [9] and in test [10] was more than 100 µM each time.

Regarding `CN(Cc1c2ccccc2cc2ccccc12)S(=O)(=O)c1ccc(-c2c3nc(c(-c4ccc(S(=O)(=O)N(C)Cc5c6ccccc6cc6ccccc56)cc4)c4ccc([nH]4)c(-c4ccc(S(=O)(=O)N(C)Cc5c6ccccc6cc6ccccc56)cc4)c4nc(c(-c5ccc(S(=O)(=O)N(C)Cc6c7ccccc7cc7ccccc67)cc5)c5ccc2[nH]5)C=C4)C=C3)cc1`, the TGI in [1], in test [2], in test [3], in [4], in [5] and in [6] was more than 100 µM throughout. For the same molecule, the TGI in test [7], in test [8], in test [9] and in [10] was more than 100 µM in each case.

As to `Cc1cc(NS(=O)(=O)c2ccc(NC(=O)c3ccc4nc5ccccc5c(Nc5ccc(S(=O)(=O)N=C(N)N)cc5)c4c3)cc2)no1`, the TGI was 38.6 µM in test [1]; 46.5 µM in test [2]; 46.7 µM in [3]; 71.9 µM in [4]; 27.7 µM in [5]; 34.8 µM in test [6]. For the same molecule, the TGI amounted to 29.4 µM in test [7], 29.4 µM in test [8], 38 µM in test [9] and 72.7 µM in test [10].

On to `NNC(=O)CC(=O)Nc1ccc(Cl)cc1`, for which the TGI in test [1], in test [2], in test [3], in test [4], in test [5] and in [6] was more than 100 µM each time. The TGI in test [7], in test [8], in test [9] and in test [10] was more than 100 µM throughout.

Consider `COc1cc2c(cc1OC)C1CN3C(=O)CCC3C(O)C1c1cc(OC)c(OC)cc1-2` (stereo not given), for which the TGI in test [1], in [2], in test [3], in test [4], in test [5] and in test [6] was more than 100 µM each time. Moreover, the TGI in test [7], in test [8], in test [9] and in test [10] was more than 100 µM each time.

In the case of `CC(C)CC(=O)NC(Nc1ccc(S(=O)(=O)Nc2ncccn2)cc1)(C(F)(F)F)C(F)(F)F`, the TGI in test [1], in test [2], in test [3], in [4], in test [5] and in test [6] was more than 100 µM throughout. Moreover, the TGI in [7], in test [8], in test [9] and in test [10] was more than 100 µM each time.

As for `COc1cc(/C=C2\C[C@H]3[C@@H]4CC=C5C[C@@H](N6CCCC6)CC[C@]5(C)[C@H]4CC[C@]3(C)[C@H]2O)cc(OC)c1OC`, the TGI was 30 µM in [1]; 32.7 µM in test [2]; more than 100 µM in test [3]; 27 µM in test [4]; more than 100 µM in test [5]; 26.7 µM in [6]. For the same molecule, the TGI in [7] came to 23.9 µM; in test [8] it was 33.6 µM; in [9] it was 26.6 µM; in test [10] it was 25.2 µM.

As for `CC1=NN(c2cccc(Cl)c2)C2(C1)C(Cl)C(=O)N2c1nc2ccccc2s1` (stereo not given), the TGI in [1] is more than 100 µM; in [2], more than 100 µM; in test [3] it was 34.3 µM; in test [4], 41.6 µM; in test [5] it was 48.4 µM; in test [6], 56.6 µM. Further, the TGI in test [7] is more than 100 µM; in test [8], 41.2 µM; in [9] it was 98.1 µM; in [10], more than 100 µM.
